Experimental findings from ChEMBL document CHEMBL5523681, “Lysosome-targeted Aza-BODIPY photosensitizers for anti-cancer photodynamic therapy” (Bioorg Med Chem, 2024) are described below.

Active and inactive are the calls of the source. The rule behind the calls is not given here.

Data set [1] in a line: Drug uptake in human HeLa cells assessed as increase in fluorescence intensity at 5 uM by confocal scanning microscopic analysis. In kind it is ADME, cell-based. As to conditions: 5 h, TDE = time-dependent effect.
A short description of data set [2]: Photosensitizing ability of the compound in PBS at pH 7.4 assessed as singlet oxygen production by measuring relative degradation rate of DPBF at 411 nm under photoirradiation with 90 mW/cm2 light by absorbance based assay. In kind it is functional.
For data set [3], the system named is B16-F10. Description: Cytotoxicity against mouse B16-F10 cells preincubated with compound for 3 hrs followed by 81 J/cm2 light irradiation and measured after 24 hrs by CCK8 assay. In kind it is functional, cell-based. The conditions noted are these: B16-F10, light or radiation study. Background: Formazan colour is commonly taken as a measure of viable cells.

Data set [4] in a line: Photosensitizing ability of the compound in DMF at pH 7 assessed as singlet oxygen quantum yield. In kind it is functional.
Data set [5] has as its system HeLa. Nature of the data set: Induction of ROS production in human HeLa cells assessed as increase in fluorescence intensity at 20 to 500 nM incubated for 3 hrs in presence of 81 J/cm2 light irradiation by confocal scanning microscopic analysis. In kind it is functional, cell-based. The conditions noted are these: dose 20-500 nM.
For data set [6], the system named is HepG2. Nature of the data set: Cytotoxicity against human HepG2 cells preincubated with compound for 3 hrs followed by 81 J/cm2 light irradiation and measured after 24 hrs by CCK8 assay. In kind it is functional, cell-based. The conditions noted are these: HepG2, light or radiation study.
Data set [7] is described as follows: Photosensitizing ability of the compound in DMF at pH 5.2 assessed as singlet oxygen quantum yield in presence of HCl. In kind it is functional.
Data set [8] is described as follows: Ratio of relative degradation rate of DPBF in PBS at pH 5.2 in presence of HCl to relative degradation rate of DPBF in PBS at pH 7. The conditions noted are these: buffer. In kind it is physicochemical.
The nature of data set [9]: Drug uptake in liver of female BALB/c nude mouse xenografted with human HeLa cells at 2 mg/kg, iv measured after 3 hrs by fluorescence imaging analysis. It is filed as ADME, organism-based. The conditions noted are these: in vivo. Background: Xenograft models place foreign cells or tissue in a host animal.
Data set [10] relates to HeLa. Nature of the data set: Antitumor activity against human HeLa cells xenografted in female BALB/c nude mouse assessed as inhibition of tumor growth at 2 mg/kg, iv preadministered with compound for 3 hrs followed by 54 J/cm2 light irradiation and measured after 24 days. In kind it is functional, organism-based. As to conditions: time 24.0 day.
Data set [11] is described as follows: Drug localization in lysosome of human HeLa cells at 5 uM incubated for 3 hrs by Lyso-tracker blue dye based confocal scanning microscopic analysis. In kind it is ADME, subcellular.
A short description of data set [12]: Drug uptake in lung of female BALB/c nude mouse xenografted with human HeLa cells at 2 mg/kg, iv measured after 3 hrs by fluorescence imaging analysis. It is filed as ADME, organism-based. The conditions noted are these: in vivo.
Data set [13] can be described thus: Fluorescence property of compound assessed as quantum yield. In kind it is physicochemical.
A short description of data set [14]: Stability of compound in emulsified PBS buffer under dark condition. It is filed as physicochemical.
Data set [15] can be described thus: Dark toxicity in human HepG2 cells incubated for 3 hrs by CCK-8 assay. It is filed as cell-based.
Data set [16] can be described thus: Ratio of singlet oxygen quantum yield in DMF at pH 5.2 in presence of HCl to singlet oxygen quantum yield in DMF at pH 7. It is filed as functional.
The nature of data set [17]: Dark toxicity in human HeLa cells incubated for 3 hrs by CCK-8 assay. In kind it is cell-based.
A short description of data set [18]: Drug uptake in mouse B16-F10 cells measured after 4 hrs by confocal scanning microscopic analysis. As to conditions: b16-f10, 4 h. In kind it is ADME, cell-based.
Data set [19] can be described thus: Toxicity in female BALB/c nude mouse xenografted with human HeLa cells assessed as decrease in body weight at 2 mg/kg, iv preadministered with compound for 3 hrs followed by 54 J/cm2 light irradiation and measured after 24 days. In kind it is organism-based. The conditions noted are these: in vivo, 576 h, time 24 day.
Data set [20] in a line: Drug localization in mitochondria of human HeLa cells at 5 uM incubated for 3 hrs by Mito-tracker green dye based confocal scanning microscopic analysis. It is filed as ADME.
Data set [21] can be described thus: Stability of compound in DMF under dark condition. It is filed as physicochemical.
The nature of data set [22]: Drug uptake in spleen of female BALB/c nude mouse xenografted with human HeLa cells at 2 mg/kg, iv measured after 3 hrs by fluorescence imaging analysis. The conditions noted are these: in vivo. It is filed as ADME, organism-based.
Data set [23] in a line: Drug localization in endoplasmic reticulum of human HeLa cells at 5 uM incubated for 3 hrs by ER-Tracker blue dye based confocal scanning microscopic analysis. In kind it is ADME, subcellular.
A short description of data set [24]: Dark toxicity in mouse B16-F10 cells incubated for 3 hrs by CCK-8 assay. It is filed as cell-based.
Data set [25] can be described thus: Stability of compound in CH3CN under dark condition. It is filed as physicochemical.
A short description of data set [26]: Photosensitizing ability of the compound in PBS at pH 5.2 in presence of HCl assessed as singlet oxygen production by measuring relative degradation rate of DPBF at 411 nm under photoirradiation with 90 mW/cm2 light by absorbance based assay. It is filed as functional.
The nature of data set [27]: Drug uptake in female BALB/c nude mouse xenografted with human HeLa cells at 2 mg/kg, iv measured after 3 hrs by fluorescence imaging analysis. In kind it is ADME, organism-based. As to conditions: in vivo.
Data set [28] in a line: Photostability of compound in emulsified PBS buffer in presence of […] light irradiation measured upto 10 mins by absorption based assay. It is filed as physicochemical.
Data set [29] deals with HeLa. Description: Cytotoxicity against human HeLa cells preincubated with compound for 3 hrs followed by 81 J/cm2 light irradiation and measured after 24 hrs by CCK8 assay. In kind it is functional, cell-based. As to conditions: light or radiation study.
The test system of data set [30] is HeLa. Nature of the data set: Antitumor activity against human HeLa cells xenografted in female BALB/c nude mouse assessed as reduction in tumor size at 2 mg/kg, iv preadministered with compound for 3 hrs followed by 54 J/cm2 light irradiation and measured after 24 days relative to control. In kind it is functional. The arrangement: scale not given: the % may be the effect or the level left. As to conditions: time 24 day.

For data set [31], the system named is MRC5. Nature of the data set: Cytotoxicity against human MRC5 cells in presence of 16 J/cm^2 light irradiation. In kind it is functional, cell-based. As to conditions: MRC5, light or radiation study.
Data set [32] is described as follows: Fluorescence property of compound assessed as quantum yield in CHCl3 by spectroscopic analysis. It is filed as physicochemical.
A short description of data set [33]: Drug localization in mitochondria of human HeLa cells at 5 uM incubated for 2 hrs by Mito-tracker green dye based confocal scanning microscopic analysis. In kind it is ADME.
A short description of data set [34]: Drug localization in endoplasmic reticulum of human HeLa cells at 5 uM incubated for 2 hrs by ER-Tracker blue dye based confocal scanning microscopic analysis. In kind it is ADME, subcellular.
The nature of data set [35]: Toxicity in female BALB/c nude mouse xenografted with human HeLa cells assessed as decrease in body weight at 2 mg/kg, iv preadministered with compound for 3 hrs followed by 54 J/cm2 light irradiation and measured after 10 days. In kind it is organism-based. The conditions noted are these: in vivo, 240 h, time 10 day.

In general, IC50 refers to the midpoint of a concentration-inhibition curve. As for `CCN(CC)Cc1ccc(C2=C(I)C(c3ccc(OC)cc3)=[N+]3C2=Nc2c(-c4ccc(CN(CC)CC)cc4)cc(-c4ccc(OC)cc4)n2[B-]3(F)F)cc1`, the Drug uptake entry in [1] is on record as “Tde”; in data set [9], “Active”; in data set [11], “Active”; in data set [12], “Active”; in data set [18], “Active”; in [20], “Not Active”. Also, the Drug uptake entry is listed as “Active” in data set [22], “Not Active” in data set [23] and “Active” in data set [27]. Also, the Activity was 1.07 in [2]; 0.44 in [4]; 0.65 in data set [7]; 0.05 in data set [13]; “Non-Toxic” in [19]; 1.45 in data set [26]. In data set [30], the Activity was found to be 60%. Moreover, the concentration for half-maximal inhibition (IC50) in [3] came to 7.9 nM; in data set [6], 15.1 nM; in data set [29], 5.3 nM. Moreover, the result in data set [5] and in data set [10] was Active. Also, the Ratio in data set [8] is 1.36; in data set [16], 1.48. In addition, the Stability entry in data set [14], in data set [21], in [25] and in [28] was “Stable” each time. Further, the IC50 at 3 h in [15], in data set [17] and in [24] was more than 50000 nM each time.
A word on the EC50: it is the concentration that produces a half-maximal response. Consider `CCN(CC)Cc1ccc(C2=C(Br)C(c3ccc(OC)cc3)=[N+]3C2=Nc2c(-c4ccc(CN(CC)CC)cc4)c(Br)c(-c4ccc(OC)cc4)n2[B-]3(F)F)cc1`, for which the Activity worked out at 1.06 in data set [2], 0.25 in data set [4], 0.65 in [7] and 1.15 in data set [26]. Also, the values for the IC50 in [3], in data set [6] and in data set [29] were 20.8 nM, 70.6 nM and 44.9 nM, respectively. The half-maximal effective concentration (EC50) in data set [31] came to 5.8 nM. Also, the Ratio in [8] is 1.08; in [16], 2.6. The Stability result in data set [14], in data set [21], in data set [25] and in data set [28] was “Unstable” each time. In addition, the IC50 at 3 h in data set [15] was 23500 nM; in data set [17], 22000 nM; in data set [24], 33100 nM.
As to `COc1ccc(C2=N/C(=N\c3[nH]c(-c4ccc(OC)cc4)cc3-c3ccccc3)C(c3ccccc3)=C2)cc1`, the Activity in [32] came out at 0.36.
Consider `CCN(CC)Cc1ccc(C2=C(I)C(c3ccc(OC)cc3)=[N+]3C2=Nc2c(-c4ccc(CN(CC)CC)cc4)c(I)c(-c4ccc(OC)cc4)n2[B-]3(F)F)cc1`, for which the Activity in [2] is 0.91; in [4], 0.61; in [7] it was 0.75; in data set [26], 1.09. For the same compound, the IC50 in data set [3] worked out at 73.5 nM; in data set [6], 73.5 nM; in data set [29], 51.1 nM. The Ratio in [8] amounted to 1.2; in data set [16], 1.23. Further, the Stability result in data set [14], in data set [21], in [25] and in [28] was “Unstable” each time. The results for the half-maximal inhibitory concentration (IC50) at 3 h in [15], in data set [17] and in data set [24] were 28900 nM, 26100 nM and 49600 nM, respectively.
As for `COc1ccc(C2=[N+]3C(=Nc4c(-c5ccccc5)cc(-c5ccc(OC)cc5)n4[B-]3(F)F)C(c3ccccc3)=C2I)cc1`, the Activity in data set [2] was 1.18; in data set [4], 0.52; in [7] it was 0.51; in data set [19], “Non-Toxic”; in [26], 1.19. In addition, the results for the IC50 in [3], in data set [6] and in [29] were 155 nM, 38.6 nM and 26.7 nM, respectively. Moreover, the values for the Ratio in data set [8] and in data set [16] were 1.01 and 0.98, respectively. Also, the result in [10] was Active. Further, the Drug uptake result in data set [33] and in data set [34] was “Not Active” each time. In addition, the IC50 at 3 h in data set [15], in data set [17] and in data set [24] was more than 50000 nM throughout. Further, the Stability entry in data set [28] is recorded as “Stable”.
Turning to `C=Cc1c(C)c2cc3nc(c(CC(=O)O)c4[nH]c(cc5nc(cc1[nH]2)C(C)=C5CC)c(C)c4C(=O)O)[C@@H](CCC(=O)O)[C@@H]3C` [CHLORIN E6], the Activity entry in data set [35] is “Toxic”. Moreover, the result in data set [10] was Active.
For `CCN(CC)Cc1ccc(C2=C(I)C(c3ccc(OC)cc3)=[N+]3C2=Nc2c(-c4ccccc4)c4c(n2[B-]3(F)F)-c2ccc(OC)cc2CC4)cc1`, the Activity in data set [2] stood at 0.84; in data set [4] it was 0.44; in data set [7], 0.51; in data set [26], 1.21. Further, the IC50 in [3] is 15 nM; in [6], 14.1 nM; in data set [29], 6.7 nM. Moreover, the Ratio amounted to 1.44 in [8] and 1.16 in [16]. Moreover, the Stability result in data set [14], in data set [21], in data set [25] and in data set [28] was “Stable” in each case. For the same compound, the 50% inhibitory concentration (IC50) at 3 h in data set [15], in data set [17] and in data set [24] was more than 50000 nM each time.
As for `CCN(CC)Cc1ccc(C2=C(I)C(c3ccc(OC)cc3)=[N+]3C2=Nc2c(-c4ccccc4)c(I)c(-c4ccc(OC)cc4)n2[B-]3(F)F)cc1`, the Activity in data set [2] amounted to 0.87; in [4] it was 0.58; in data set [7], 0.74; in data set [26], 0.98. The half-maximal inhibitory concentration (IC50) is 78.6 nM in data set [3], 132 nM in [6] and 60.8 nM in [29]. Moreover, the values for the Ratio in [8] and in data set [16] were 1.13 and 1.28, respectively. Also, the Stability result in [14], in [21], in [25] and in data set [28] was “Unstable” each time. Further, the IC50 at 3 h in [15] is 49400 nM; in data set [17], more than 50000 nM; in data set [24], 49900 nM.
